Assay results: article PMC5267425, “Identification of small molecule modulators of HIV-1 Tat and Rev protein accumulation” (Retrovirology, 2017)
Several values for one entry are separate records, joined by “and”; a condition that tells them apart may be missing. Equal entries are not always repeated.

Test system: cellular gene expression in HeLa rtTA HIV∆Mls cells
Details: 9147791-treated cells, replicates

Structure (SMILES): Cc1cc(NCc2cccnc2)n2ncc(-c3ccc(Cl)cc3)c2n1 [Compound 791, 3-(4-chlorophenyl)-5-methyl-N-(3-pyridinylmethyl)pyrazolo[1,5-a]pyrimidin-7-amine]
- ACTN1 expression level: 70.54 and 65.87
- ADI1 expression level: 21.28 and 20.50
- AGPAT2 expression level: 26.74 and 28.83
- ALDOC expression level: 1.08 and 1.02
- ANXA5 expression level: 191.66 and 185.16
- ANXA6 expression level: 69.55 and 59.50
- AP2M1 expression level: 238.02 and 237.30
- APOBEC3B expression level: 8.21 and 6.81
- ARF1 expression level: 151.10 and 145.27
- ARHGAP11A expression level: 26.24 and 25.64
- ARPC5 expression level: 71.19 and 65.59
- ATP6V0A1 expression level: 15.83 and 16.80
- ATP8B1 expression level: 0.78 and 0.65
- B3GNT1 expression level: 9.03 and 9.24
- BAT3 expression level: 82.22 and 79.10
- BCOR expression level: 21.09 and 21.93
- BCORL1 expression level: 5.39 and 5.54
- BHLHB9 expression level: 1.05 and 1.03
- BMPR1B expression level: 0.73 and 0.81
- BST2 expression level: 245.44 and 203.71
- C1orf115 expression level: 6.22 and 6.65
- C3orf59 expression level: 1.02 and 1.00
- C5orf13 expression level: 10.12 and 9.25
- C5orf15 expression level: 25.66 and 24.81
- C6orf145 expression level: 25.69 and 26.94
- C9orf3 expression level: 5.07 and 4.02
- C9orf163 expression level: 0.72 and 0.74
- C10orf76 expression level: 6.17 and 6.53
- C10orf114 expression level: 6.12 and 7.21
- C14orf147 expression level: 24.04 and 21.03
- C19orf28 expression level: 20.85 and 20.05
- C20orf29 expression level: 8.83 and 7.98
- CALD1 expression level: 28.16 and 24.92
- CAP2 expression level: 6.21 and 6.88
- CAPN1 expression level: 47.66 and 45.36
- CASC5 expression level: 8.52 and 8.14
- CAV2 expression level: 13.23 and 12.84
- CCDC85C expression level: 13.99 and 13.05
- CCDC99 expression level: 61.28 and 55.39
- CCDC102A expression level: 2.18 and 1.83
- CCDC150 expression level: 3.18 and 3.23
- CD276 expression level: 44.64 and 46.66
- CDC42EP3 expression level: 3.11 and 2.92
- CDK1 expression level: 61.18 and 65.43
- CDKL1 expression level: 6.48 and 6.73
- CDKN2C expression level: 30.46 and 26.27
- CGN expression level: 1.21 and 1.38
- CHN1 expression level: 6.56 and 6.26
- CLPTM1L expression level: 137.08 and 134.64
- CNN2 expression level: 47.78 and 46.33
- CNNM3 expression level: 10.75 and 11.30
- COMMD1 expression level: 12.70 and 12.99
- CRTC3 expression level: 31.32 and 28.75
- CSRP2 expression level: 30.49 and 33.02
- CTNND1 expression level: 21.98 and 23.56
- CTTNBP2 expression level: 2.16 and 2.53
- CYTH3 expression level: 13.78 and 13.70
- DAB2 expression level: 15.91 and 16.84
- DAG1 expression level: 27.42 and 30.65
- DBF4B expression level: 6.80 and 6.36
- DCAF6 expression level: 12.78 and 12.38
- DDR1 expression level: 23.20 and 20.76
- DNMT3L expression level: 1.04 and 0.90
- DOCK1 expression level: 11.83 and 12.65
- DOCK8 expression level: 1.41 and 1.38
- DUSP1 expression level: 278.63 and 269.45
- DUSP8 expression level: 0.79 and 0.93
- ECT2 expression level: 33.55 and 30.42
- EMP2 expression level: 8.82 and 9.39
- EPB41L4A expression level: 4.70 and 5.12
- ERCC2 expression level: 21.00 and 19.80
- ESAM expression level: 3.07 and 3.33
- ESYT2 expression level: 32.11 and 32.37
- F2R expression level: 28.45 and 29.47
- FAM13B expression level: 9.53 and 8.84
- FAM83D expression level: 34.40 and 31.73
- FAM127A expression level: 137.05 and 133.03
- FARP1 expression level: 32.38 and 34.32
- FBXL2 expression level: 3.80 and 3.59
- FDFT1 expression level: 43.70 and 46.85
- FGFR3 expression level: 5.45 and 6.20
- FSTL1 expression level: 31.24 and 29.61
- FUBP1 expression level: 41.68 and 44.21
- FZR1 expression level: 11.76 and 10.90
- GALNT2 expression level: 52.29 and 59.07
- GATSL1 expression level: 3.56 and 3.66
- GLCCI1 expression level: 5.50 and 5.98
- GLI2 expression level: 1.61 and 1.91
- GNG10 expression level: 35.68 and 34.10
- GPR176 expression level: 6.89 and 6.58
- GTF3C1 expression level: 29.06 and 29.38
- H3F3A expression level: 242.14 and 260.31
- HACL1 expression level: 8.70 and 8.40
- HDAC1 expression level: 74.08 and 73.05
- HEG1 expression level: 6.29 and 6.77
- HIST1H3B expression level: 1.94 and 1.96
- HMGB3 expression level: 28.50 and 26.71
- HMGN3 expression level: 74.54 and 69.90
- HNRNPH2 expression level: 55.22 and 51.55
- HSPB8 expression level: 24.33 and 26.14
- ICK expression level: 4.87 and 5.19
- ID3 expression level: 119.77 and 102.82
- IDH2 expression level: 17.89 and 18.64
- IDI1 expression level: 13.51 and 16.55
- IKBIP expression level: 8.02 and 8.05
- INCENP expression level: 24.44 and 25.00
- INO80C expression level: 1.90 and 1.87
- JUB expression level: 13.13 and 12.45
- KANK2 expression level: 20.68 and 20.72
- KHDRBS1 expression level: 80.26 and 74.92
- KIF3B expression level: 14.85 and 14.03
- KIF5C expression level: 0.60 and 0.55
- KIF11 expression level: 24.10 and 21.47
- KIF18B expression level: 12.16 and 12.54
- KIF20B expression level: 12.24 and 11.00
- KIFC1 expression level: 47.71 and 45.30
- KITLG expression level: 11.50 and 12.57
- KLF9 expression level: 12.26 and 10.78
- KLHDC3 expression level: 56.38 and 53.87
- KPNA2 expression level: 179.32 and 162.46
- LAPTM4B expression level: 71.83 and 68.84
- LMO7 expression level: 19.87 and 20.69
- LRRC16A expression level: 6.80 and 7.88
- MAML2 expression level: 2.44 and 2.29
- MANF expression level: 42.22 and 45.27
- MAP3K14 expression level: 8.59 and 8.30
